Results on 13 compounds are retold here after patent US20250368962A1, “THREE-DIMENSIONAL HEPATIC TISSUE AND METHOD OF MANUFACTURING THE SAME” (TOPPAN HOLDINGS INC., priority 2023, published 2025).

Assay [1] concerns spheroids consisting only of human hepatocytes (PXB cells). Briefly: ATP assay (CellTiter Glo 3D) viability after exposure to hepatotoxicity-inducing compounds, Test Example 6 Condition 2. The note with it: calculated from cell viability (ATP), hepatocyte spheroids, exposure 168 hours, no bile acids, read-out: IC50 Condition 2 (spheroid). Type of assay: cell-based.
Assay [2] concerns three-dimensional hepatic tissue consisting only of human hepatocytes (PXB cells). In words: ATP assay (CellTiter Glo 3D) viability after exposure to hepatotoxicity-inducing compounds, Test Example 6 Condition 1. It counts as cell-based. The note with it: Hepatocyte, calculated from cell viability (ATP), exposure 168 hours from day 8 of culture, no bile acids, read-out: IC50 Condition 1 (present tissue). The procedure:
The resulting mixture was centrifuged at room temperature at 400×g for 2 minutes, the supernatant was removed, and the cells were resuspended in an HCM (product number “CC-3198”, manufactured by Lonza) containing 10 U/mL thrombin (product number “R4648”, manufactured by Sigma-Aldrich) and 1 v/v % endothelial cell growth supplement (ECGS) (product number “1052”, manufactured by Sciencell) to a cell density of 1.95×10^4 cells/2 μL to obtain a cell suspension.
2 μL of an HCM containing 5 mg/mL fibrinogen and 1 v/v % ECGS was added to a 48-well microplate (product number “3830-048”, manufactured by AGC Techno Glass) to form a droplet. The cell suspension was added to the interior of each droplet, and the 48-well microplate was then left to stand in an incubator for 40 minutes to form a fibrin gel in which the human hepatocytes were embedded. 0.5 mL of HCM containing 1 v/v % ECGS was added to each well in which the fibrin gel had been formed, and the cells were cultured under the conditions of 37° C. and 5% CO2. After the start of the culture, the medium was changed every two days.

`NC(=O)N1c2ccccc2C=Cc2ccccc21` [Carbamazepine]: the IC50 was 978 µM in assay [1] and 843 µM in assay [2].
For `CCc1nn(CCCN2CCN(c3cccc(Cl)c3)CC2)c(=O)n1CCOc1ccccc1` [Nefazodone], in that order: 46.5 µM and 39.9 µM.
The like results for `CC(=O)Nc1ccc(O)cc1` [Acetaminophen] were, in that order, 4670 µM and 5510 µM.
The like results for `C1CCC(C(CC2CCCCN2)C2CCCCC2)CC1` (centres unmarked) [Perhexiline] were, in that order, 5.6 µM and 3.6 µM.
Consider `O=C(O)Cc1ccccc1Nc1c(Cl)cccc1Cl` [Diclofenac], for which the values for the IC50 in assay [1] and in assay [2] were 297 µM and 337 µM, respectively.
For `CC(C)C(=O)Nc1ccc([N+](=O)[O-])c(C(F)(F)F)c1` [Flutamide], in that order: 178 µM and 63.9 µM.
As for `CS(=O)(=O)Nc1ccc([N+](=O)[O-])cc1Oc1ccccc1` [Nimesulide], the figures for the IC50 in assay [1] and in assay [2] were 683 µM and 323 µM, respectively.
The like results for `Cc1c(C)c2c(c(C)c1O)CCC(C)(COc1ccc(CC3SC(=O)NC3=O)cc1)O2` (centres unmarked) [Troglitazone] were, in that order, 202 µM and 92.9 µM.
In the case of `CCc1oc2ccccc2c1C(=O)c1cc(Br)c(O)c(Br)c1` [Benzbromarone], the figures for the IC50 in assay [1] and in assay [2] were 256 µM and 249 µM, respectively.
The like results for `CC(=O)N1CCN(c2ccc(OCC3COC(Cn4ccnc4)(c4ccc(Cl)cc4Cl)O3)cc2)CC1` (centres unmarked) [Ketoconazole] were, in that order, 79.5 µM and 80.7 µM.
Regarding `CN(C)CCCN1c2ccccc2Sc2ccc(Cl)cc21` [Chlorpromazine], the IC50 in assay [1] was 25 µM; in assay [2] it was 26.6 µM.
The like results for `CS(=O)(=O)CCNCc1ccc(-c2ccc3ncnc(Nc4ccc(OCc5cccc(F)c5)c(Cl)c4)c3c2)o1` [Lapatinib] were, in that order, 27.3 µM and 8.4 µM.
For `Cc1ccc(C(=O)c2cc(O)c(O)c([N+](=O)[O-])c2)cc1` [Tolcapone], in that order: 92.4 µM and 132 µM.
